# Experiments:
# [1] = tested on: HUVEC and M1 macrophages+Zymosan (TLR2 ligand); assay: BioMAP IMphg system; type: cell-based, human; conditions: CD14+ derived macrophages; PF-06650833 19-500 nM
# Description: The BioMAP systems consist of human primary cell-based systems designed to model different aspects of the human body in an in vitro format. The 12 systems tested characterized the test compounds across a broad set of systems modeling various human disease states. BioMAP systems were constructed with one or more primary cell types from healthy human donors, with stimuli (such as cytokines or growth factors) added to capture relevant signaling networks that naturally occur in human tissue or pathological conditions. […] Soluble factors from supernatants were quantified using either HTRF® detection, bead-based multiplex immunoassay or capture ELISA. Overt adverse effects of test agents on cell proliferation and viability (cytotoxicity) were detected by sulforhodamine B (SRB) staining, for adherent cells, and alamarBlue® reduction for cells in suspension. […] Each tested compound generated a signature BioMAP profile that was created from the changes in protein biomarker readouts within individual system environments. […] Each readout was measured quantitatively by immune-based methods that detected protein (e.g., ELISA) or functional assays that measured proliferation and viability. BioMAP readouts were diverse and included cell surface receptors, cytokines, chemokines, matrix molecules and enzymes. […]
# [2] = 13 week toxicology study in rat: exposure interaction of tofacitinib and PF-06650833; type: in vivo
compound,measurement,setting,value
"CC[C@@H]1[C@H](F)C(=O)N[C@@H]1COc1nccc2cc(C(N)=O)c(OC)cc12 [PF-06650833, 1-(((2S,3S,4S)-3-Ethyl-4-fluoro-5-oxopyrrolidin-2-yl)methoxy)-7-methoxyisoquinoline-6-carboxamide]",Activity in the IMphg system,[1],no activity was found
same,Effects of 10 mg/kg tofacitinib on PF-06650833 exposure,"[2]; female rats, 50 mg/kg PF-06650833",no significant effects
same,Effects of 10 mg/kg tofacitinib on PF-06650833 exposure,"[2]; male rats, 100 mg/kg PF-06650833",no significant effects
